Source: patent US20240158370A1, “CK1 alpha AND DUAL CK1 alpha / GSPT1 DEGRADING COMPOUNDS” (Innovo Therapeutics, Inc., priority 2022, published 2024)

What was measured:
Format in all cases: cell-based
CK1α = biological target: T1, CK1α (Homo sapiens, UniProt P48729+Q96SW2); assay: HiBiT degradation assay, CK1α, Procedure A
T1 construct: CSNK1A1-HiBit KI HEK293(LgBit) Cells; host or cells: HEK293(LgBit) knock-in cells
Summary of the method: (§1)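 DC50 and Ymin (% remaining) were derived by four-parameter fitting of luminescence data. The data come from a six-hour, 37° C compound exposure of cells in DMEM/10% FBS over a ten-point range, 10 μM to 0.005 μM, followed by Nano-Glo HiBiT lytic detection.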

Z-138 cells = assay: Z-138 Proliferation Assay (Cell Titer-Glo); details: 72 hours; for Ymin (%): % remaining (percent of DMSO control); for EC50: Homo sapiens, Cell Titer-Glo, 4-parameter curve fit
Method: Z-138 Proliferation Assay
Z-138 cells were cultured in IMDM Medium supplemented with 10% heat in-activated fetal bovine serum and 1% Penicillin-Streptomycin.
10 mM stocks of compound were made from fresh powder. DMSO was added to solid compound so that the final concentration was 10 mM. Compounds were vortexed and allowed to sit for 5 minutes to ensure complete solubility. Solvated compound was aliquoted into 1 ml Eppendorf tubes and stored in a −20° C. freezer.
Z-138 cells were maintained in culture using standard cell culturing techniques.
Cells were maintained at a density of 0.8×10^6 cells/ml.
Re-constitute cell titer-glo reagent according to manufacturer's protocol.
Z-138 cells were removed from culture and cell viability and density were determined using a CellDrop™ Automated Cell Counter with Tryphan blue stain according to manufacturer's protocols. Cells were centrifuged and resuspended using fresh media to a cell density of 0.1×10^6 cells/ml. […] 40 μl of cell suspension was added to the wells of a 384 well tissue culture plate (4,000 cells/well final). Upon completing the addition of the cells to the plate, the plates were centrifuged for 30 seconds at 300 rpms to help the cells settle and to bring air bubbles to the top of the wells. Air bubbles were popped using a pipette tip.
10-point dose response curves were performed using a D300e Digital Dispenser. The highest concentration of compound used in the assay was 10,000 nM. 1:2 dilutions were performed over a 10-point range with the final DMSO concentration being 0.1%. The cells were cultured for 72 hours in the presence of compound.
After 72 hours, the cell plates were removed from the incubator and allowed to equilibrate to room temperature (about 15 minutes). 20 μl of cell titer-glo reagent was added to each well of the 384 well plate. Incubated the plate for 30 minutes in the dark. After 30 minutes, ensured that there were no air bubbles in the plate (popped bubbles with pipette tip if necessary) and analyzed plate using a luminometer.
EC50 curves were generated using Prism Graph Pad. In brief, POCs (percent of control, compound/DMSO control×100) were plotted against the compound concentrations (log scale). EC50 curves were generated using a 4-parameter curve fit.

GSPT1 = GSPT1 (Homo sapiens, UniProt P15170+Q96SW2); assay: HiBiT degradation assay, GSPT1, Procedure A; set-up: HiBit-GSPT1 KI HEK293(LgBit) Cells; host or cells: HEK293(LgBit) knock-in cells
Chain of GSPT1 (P15170 whole entry): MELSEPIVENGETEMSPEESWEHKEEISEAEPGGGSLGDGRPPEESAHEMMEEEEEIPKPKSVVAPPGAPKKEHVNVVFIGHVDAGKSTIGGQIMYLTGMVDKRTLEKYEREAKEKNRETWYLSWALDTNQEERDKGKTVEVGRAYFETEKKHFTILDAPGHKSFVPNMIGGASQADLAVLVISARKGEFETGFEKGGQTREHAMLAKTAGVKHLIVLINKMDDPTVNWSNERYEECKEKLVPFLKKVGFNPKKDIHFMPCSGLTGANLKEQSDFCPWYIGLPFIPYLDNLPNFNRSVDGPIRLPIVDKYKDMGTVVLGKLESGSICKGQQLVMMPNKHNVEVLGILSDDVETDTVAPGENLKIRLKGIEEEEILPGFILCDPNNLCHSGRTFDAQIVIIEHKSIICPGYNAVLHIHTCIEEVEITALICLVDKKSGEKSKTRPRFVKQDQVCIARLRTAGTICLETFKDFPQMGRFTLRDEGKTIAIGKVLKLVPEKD
Chain of GSPT1 (Q96SW2 whole entry): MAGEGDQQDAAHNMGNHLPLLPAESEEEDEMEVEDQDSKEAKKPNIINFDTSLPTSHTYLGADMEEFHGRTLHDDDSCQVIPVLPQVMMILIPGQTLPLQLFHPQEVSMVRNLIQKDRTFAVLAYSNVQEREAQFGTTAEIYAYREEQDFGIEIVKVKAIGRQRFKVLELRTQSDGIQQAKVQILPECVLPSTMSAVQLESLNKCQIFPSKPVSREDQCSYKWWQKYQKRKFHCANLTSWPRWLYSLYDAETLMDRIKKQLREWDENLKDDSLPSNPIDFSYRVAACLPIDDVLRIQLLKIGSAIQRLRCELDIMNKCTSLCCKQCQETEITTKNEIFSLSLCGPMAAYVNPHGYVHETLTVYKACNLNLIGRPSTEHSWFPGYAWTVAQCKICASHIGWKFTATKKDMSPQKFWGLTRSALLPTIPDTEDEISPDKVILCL
Chain of GSPT1 (Q16531 whole entry partner): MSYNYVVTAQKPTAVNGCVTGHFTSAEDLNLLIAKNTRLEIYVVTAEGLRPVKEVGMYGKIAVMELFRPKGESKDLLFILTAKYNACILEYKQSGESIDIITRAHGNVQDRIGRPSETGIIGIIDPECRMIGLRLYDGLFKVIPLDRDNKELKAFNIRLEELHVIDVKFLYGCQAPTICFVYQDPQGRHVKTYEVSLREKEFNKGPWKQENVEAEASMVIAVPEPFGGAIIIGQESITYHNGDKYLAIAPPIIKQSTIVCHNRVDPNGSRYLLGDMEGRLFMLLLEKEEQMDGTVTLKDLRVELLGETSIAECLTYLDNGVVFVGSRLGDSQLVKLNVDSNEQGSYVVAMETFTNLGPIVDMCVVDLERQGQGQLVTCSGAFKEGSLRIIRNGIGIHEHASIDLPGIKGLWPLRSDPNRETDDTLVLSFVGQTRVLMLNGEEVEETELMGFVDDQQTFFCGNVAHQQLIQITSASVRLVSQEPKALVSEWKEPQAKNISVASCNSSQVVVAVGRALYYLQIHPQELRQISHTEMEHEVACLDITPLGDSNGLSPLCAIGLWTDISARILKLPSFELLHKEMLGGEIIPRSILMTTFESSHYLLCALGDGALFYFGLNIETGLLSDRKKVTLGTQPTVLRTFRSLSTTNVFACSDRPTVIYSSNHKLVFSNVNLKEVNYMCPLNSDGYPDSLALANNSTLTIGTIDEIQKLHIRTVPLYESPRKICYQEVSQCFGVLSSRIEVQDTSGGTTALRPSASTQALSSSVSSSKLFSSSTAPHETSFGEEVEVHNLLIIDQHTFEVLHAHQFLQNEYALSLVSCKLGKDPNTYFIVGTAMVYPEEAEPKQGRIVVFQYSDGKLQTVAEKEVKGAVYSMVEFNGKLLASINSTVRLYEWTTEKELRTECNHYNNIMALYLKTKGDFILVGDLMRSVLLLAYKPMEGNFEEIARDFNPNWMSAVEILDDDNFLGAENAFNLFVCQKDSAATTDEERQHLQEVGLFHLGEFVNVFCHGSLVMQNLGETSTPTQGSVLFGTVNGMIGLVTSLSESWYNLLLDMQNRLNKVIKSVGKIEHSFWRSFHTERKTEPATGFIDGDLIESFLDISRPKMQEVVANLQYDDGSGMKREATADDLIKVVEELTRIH
Summary of the method: as §1

T1 sequence (P48729 whole entry): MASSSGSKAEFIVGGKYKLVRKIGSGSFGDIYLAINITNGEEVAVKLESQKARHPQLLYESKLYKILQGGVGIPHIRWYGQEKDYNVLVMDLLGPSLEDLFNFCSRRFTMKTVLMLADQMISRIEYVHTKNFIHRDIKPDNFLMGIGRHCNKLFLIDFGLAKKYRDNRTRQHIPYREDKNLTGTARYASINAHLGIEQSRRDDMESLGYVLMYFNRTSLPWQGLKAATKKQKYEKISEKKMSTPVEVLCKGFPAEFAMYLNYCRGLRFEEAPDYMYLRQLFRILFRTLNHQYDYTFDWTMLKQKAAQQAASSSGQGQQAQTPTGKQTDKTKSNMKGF
T1 sequence (Q96SW2 whole entry): as the sequence (Q96SW2 whole entry) above
T1 sequence (Q16531 whole entry partner): as the sequence (Q16531 whole entry partner) above

| CK1α Ymin (CK1α; six hours incubation) | DC50 (CK1α; six hours incubation) [µM] | DC50 (GSPT1; six hours incubation) [µM] | GSPT1 Ymin (GSPT1; six hours incubation) | CK1α Ymin (CK1α; six hours) | DC50 (CK1α; six hours) [µM] | DC50 (GSPT1; six hours) [µM] | GSPT1 Ymin (GSPT1; six hours) | SMILES | Ymin (%) (Z-138 cells) | EC50 (Z-138 cells) [µM] |
| --- | --- | --- | --- | --- | --- | --- | --- | --- | --- | --- |
| C (C = 0-10% remaining) | < 0.025 | ≥ 0.025 | F (F = >75-100% remaining) | – | – | – | – | CN(C)Cc1ccc(-c2c(-c3ccc4c(c3)CN(C3CCC(=O)NC3=O)C4=O)cnn2C)cc1 (stereo not drawn) [Example 224] | E (>10-25% remaining) | < 0.01 |
| C (C = 0-10% remaining) | < 0.025 | < 0.025 | F (F = >75-100% remaining) | – | – | – | – | CN(C)Cc1ccc(-c2c(-c3ccc4c(c3)CN(C3CCC(=O)NC3=O)C4=O)ncn2C)cc1 (stereo not drawn) [Example 269] | D (0-10% remaining) | < 0.01 |
| D (D = >10- 25% remaining) | < 0.025 | < 0.025 | F (F = >75-100% remaining) | – | – | – | – | Cn1cnc(-c2ccc3c(c2)CN(C2CCC(=O)NC2=O)C3=O)c1-c1cccc(N2CCCC2)c1 (stereo not drawn) [Example 287] | D (0-10% remaining) | < 0.01 |
| C (C = 0-10% remaining) | < 0.025 | ≥ 0.025 | E (E = >25-75% remaining) | – | – | – | – | Cn1cc(-c2c(-c3ccc4c(c3)CN(C3CCC(=O)NC3=O)C4=O)ncn2C)cn1 (stereo not drawn) [Example 319] | D (0-10% remaining) | 0.01 to 0.1 |
| D (D = >10- 25% remaining) | < 0.025 | ≥ 0.025 | F (F = >75-100% remaining) | – | – | – | – | Cn1cnc(-c2ccc3c(c2)CN(C2CCC(=O)NC2=O)C3=O)c1-c1cnn2ccccc12 (stereo not drawn) [Example 331] | D (0-10% remaining) | 0.01 to 0.1 |
| C (C = 0-10% remaining) | < 0.025 | < 0.025 | F (F = >75-100% remaining) | – | – | – | – | Cn1cc(-c2ccc3c(c2)CN(C2CCC(=O)NC2=O)C3=O)nc1C1CCCCC1 (stereo not drawn) [Example 335, 3-(5-(2-cyclohexyl-1-methyl-1H-imidazol-4-yl)-1-oxoisoindolin-2-yl)piperidine-2,6-dione] | D (0-10% remaining) | 0.01 to 0.1 |
| C (C = 0-10% remaining) | < 0.025 | < 0.025 | F (F = >75-100% remaining) | – | – | – | – | O=C1CCC(N2Cc3cc(-c4ncn5c4-c4ccccc4C5)ccc3C2=O)C(=O)N1 (stereo not drawn) [Example 339, 3-(5-(5H-imidazo[5,1-a]isoindol-1-yl)-1-oxoisoindolin-2-yl)piperidine-2,6-dione] | D (0-10% remaining) | 0.01 to 0.1 |
| – | – | – | – | C (C = 0-10% remaining) | < 0.025 | ≥ 0.025 | F (F = >75-100% remaining) | Cn1ncc(-c2ccc3c(c2)CN(C2CCC(=O)NC2=O)C3=O)c1-c1ccc2cc[nH]c2c1 (stereo not drawn) [Example 379] | D (0-10% remaining) | < 0.01 |
| – | – | – | – | C (C = 0-10% remaining) | < 0.025 | ≥ 0.025 | F (F = >75-100% remaining) | O=C1CCC(N2Cc3cc(-c4cn(C(F)F)c(-c5ccccc5)n4)ccc3C2=O)C(=O)N1 (stereo not drawn) [Example 421, 3-(5-(1-(difluoromethyl)-2-phenyl-1H-imidazol-4-yl)-1-oxoisoindolin-2-yl)piperidine-2,6-dione] | F (>25-50% remaining) | 0.01 to 0.1 |
| – | – | – | – | D (D = >10- 25% remaining) | < 0.025 | < 0.025 | F (F = >75-100% remaining) | O=C1CCC(N2Cc3cc(-c4cnn(C(F)F)c4-c4ccccc4)ccc3C2=O)C(=O)N1 (stereo not drawn) [Example 422, 3-(5-(1-(difluoromethyl)-5-phenyl-1H-pyrazol-4-yl)-1-oxoisoindolin-2-yl)piperidine-2,6-dione] | D (0-10% remaining) | 0.01 to 0.1 |
| – | – | – | – | C (C = 0-10% remaining) | < 0.025 | < 0.025 | F (F = >75-100% remaining) | COc1ccc(-c2c(-c3ccc4c(c3)CN(C3CCC(=O)NC3=O)C4=O)cnn2C(F)F)c(Cl)c1 (stereo not drawn) [Example 518, 3-(5-(5-(2-chloro-4-methoxyphenyl)-1-(difluoromethyl)-1H-pyrazol-4-yl)-1-oxoisoindolin-2-yl)piperidine-2,6-dione] | D (0-10% remaining) | 0.01 to 0.1 |
| – | – | – | – | C (C = 0-10% remaining) | < 0.025 | ≥ 0.025 | F (F = >75-100% remaining) | Cn1nc(-c2ccc3c(c2)CN(C2CCC(=O)NC2=O)C3=O)nc1-c1ccccc1 (stereo not drawn) [Example 519, 3-[5-(1-methyl-5-phenyl-1,2,4-triazol-3-yl)-1-oxo-isoindolin-2-yl]piperidine-2,6-dione] | E (>10-25% remaining) | 0.01 to 0.1 |
| – | – | – | – | D (D = >10- 25% remaining) | < 0.025 | ≥ 0.025 | F (F = >75-100% remaining) | Cn1nc(-c2ccc3c(c2)CN(C2CCC(=O)NC2=O)C3=O)cc1C1CCC(F)(F)CC1 (stereo not drawn) [Example 546, 3-(5-(5-(4,4-difluorocyclohexyl)-1-methyl-1H-pyrazol-3-yl)-1-oxoisoindolin-2-yl)piperidine-2,6-dione] | F (>25-50% remaining) | 0.01 to 0.1 |
| – | – | – | – | C (C = 0-10% remaining) | < 0.025 | ≥ 0.025 | F (F = >75-100% remaining) | CC(C)n1nc(-c2ccc3c(c2)CN(C2CCC(=O)NC2=O)C3=O)cc1-c1ccccc1 (stereo not drawn) [Example 550, 3-(5-(1-isopropyl-5-phenyl-1H-pyrazol-3-yl)-1-oxoisoindolin-2-yl)piperidine-2,6-dione] | D (0-10% remaining) | 0.01 to 0.1 |
| – | – | – | – | C (C = 0-10% remaining) | < 0.025 | ≥ 0.025 | F (F = >75-100% remaining) | CC(C)n1nc(-c2ccc3c(c2)CN(C2CCC(=O)NC2=O)C3=O)nc1-c1ccccc1 (stereo not drawn) [Example 553, 3-(5-(1-isopropyl-5-phenyl-1H-1,2,4-triazol-3-yl)-1-oxoisoindolin-2-yl)piperidine-2,6-dione] | D (0-10% remaining) | 0.01 to 0.1 |
| – | – | – | – | E (E = >25-75% remaining) | < 0.025 | ≥ 0.025 | F (F = >75-100% remaining) | Cn1ncc(-c2ccc3c(c2)CN(C2CCC(=O)NC2=O)C3=O)c1C1CCCCC1 (stereo not drawn) [Example 588] | F (>25-50% remaining) | 0.01 to 0.1 |
| – | – | – | – | C (C = 0-10% remaining) | < 0.025 | < 0.025 | E (E = >25-75% remaining) | Cn1cnc(-c2ccc3c(c2)CN(C2CCC(=O)NC2=O)C3=O)c1C1CCCCC1 (stereo not drawn) [Example 594] | D (0-10% remaining) | < 0.01 |
| – | – | – | – | E (E = >25-75% remaining) | ≥ 0.025 | ≥ 0.025 | F (F = >75-100% remaining) | Cn1nc(-c2ccc3c(c2)CN(C2CCC(=O)NC2=O)C3=O)nc1C1CCC(F)(F)CC1 (stereo not drawn) [Example 606, 3-(5-(5-(4,4-difluorocyclohexyl)-1-methyl-1H-1,2,4-triazol-3-yl)-1-oxoisoindolin-2-yl)piperidine-2,6-dione] | F (>25-50% remaining) | 0.01 to 0.1 |
| – | – | – | – | D (D = >10- 25% remaining) | ≥ 0.025 | ≥ 0.025 | F (F = >75-100% remaining) | Cn1nc(-c2ccc3c(c2)CN(C2CCC(=O)NC2=O)C3=O)nc1C1CCCCC1 (stereo not drawn) [Example 614, 3-(5-(5-cyclohexyl-1-methyl-1H-1,2,4-triazol-3-yl)-1-oxoisoindolin-2-yl)piperidine-2,6-dione] | F (>25-50% remaining) | 0.01 to 0.1 |
| – | – | – | – | C (C = 0-10% remaining) | < 0.025 | < 0.025 | F (F = >75-100% remaining) | Cc1c(-c2ccc3c(c2)CN(C2CCC(=O)NC2=O)C3=O)nc(C2CCOCC2)n1C (stereo not drawn) [Example 615, 3-(5-(1,5-dimethyl-2-(tetrahydro-2H-pyran-4-yl)-1H-imidazol-4-yl)-1-oxoisoindolin-2-yl)piperidine-2,6-dione] | E (>10-25% remaining) | 0.01 to 0.1 |
